{"source": "patent US20110269811A1", "about": "“INHIBITORS OF SEMICARBAZIDE-SENSITIVE AMINE OXIDASE (SSAO) AND VAP-1 MEDIATED ADHESION USEFUL FOR TREATMENT AND PREVENTION OF DISEASES” (priority 2006, published 2011)", "key": {"AT1 (h)": {"target": "T1, AT1 (h) (Homo sapiens, UniProt P30556)", "T1 construct": "expressed in transfected cells; host or cells: CHO cells", "T1 sequence (P30556 whole entry)": "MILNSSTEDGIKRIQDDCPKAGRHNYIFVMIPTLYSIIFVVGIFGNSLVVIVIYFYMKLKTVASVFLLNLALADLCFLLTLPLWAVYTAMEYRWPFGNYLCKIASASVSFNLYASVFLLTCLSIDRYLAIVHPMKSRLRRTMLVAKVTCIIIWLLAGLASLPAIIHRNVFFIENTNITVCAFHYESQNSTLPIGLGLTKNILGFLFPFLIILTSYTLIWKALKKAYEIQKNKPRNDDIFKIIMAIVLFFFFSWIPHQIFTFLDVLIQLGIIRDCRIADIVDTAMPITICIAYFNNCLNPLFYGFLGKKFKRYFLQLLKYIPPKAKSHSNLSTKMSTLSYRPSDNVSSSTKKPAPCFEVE", "assay": "Receptor binding screen, [^125I][Sar^1,Ile^8]-ATII", "conditions": "10 uM Concentration of Compound I-1-Z; read-out: Mean Value, percent inhibition of control specific binding: AT1 (h)"}, "β2 (h)": {"target": "T2, β2 (h) (Homo sapiens, UniProt P07550)", "T2 construct": "expressed in transfected cells; host or cells: Sf9 cells", "T2 sequence (P07550 whole entry)": "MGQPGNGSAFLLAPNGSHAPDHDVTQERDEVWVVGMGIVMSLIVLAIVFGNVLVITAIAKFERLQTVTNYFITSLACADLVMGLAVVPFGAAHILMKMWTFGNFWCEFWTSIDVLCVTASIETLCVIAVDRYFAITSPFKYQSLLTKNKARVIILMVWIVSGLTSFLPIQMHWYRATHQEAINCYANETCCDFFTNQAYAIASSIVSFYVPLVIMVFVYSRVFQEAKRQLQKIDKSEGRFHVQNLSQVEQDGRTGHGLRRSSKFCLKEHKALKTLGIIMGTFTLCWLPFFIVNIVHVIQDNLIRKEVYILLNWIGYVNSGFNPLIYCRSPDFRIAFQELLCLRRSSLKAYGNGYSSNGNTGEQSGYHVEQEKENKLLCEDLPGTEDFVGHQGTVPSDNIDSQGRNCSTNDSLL", "assay": "Receptor binding screen, [^3H](−)CGP 12177", "conditions": "10 uM Concentration of Compound I-1-Z; read-out: Mean Value, percent inhibition of control specific binding: β2 (h)"}, "AT2 (h)": {"target": "T3, AT2 (h) (Homo sapiens, UniProt P50052)", "T3 construct": "expressed in transfected cells; host or cells: Hela cells", "T3 sequence (P50052 whole entry)": "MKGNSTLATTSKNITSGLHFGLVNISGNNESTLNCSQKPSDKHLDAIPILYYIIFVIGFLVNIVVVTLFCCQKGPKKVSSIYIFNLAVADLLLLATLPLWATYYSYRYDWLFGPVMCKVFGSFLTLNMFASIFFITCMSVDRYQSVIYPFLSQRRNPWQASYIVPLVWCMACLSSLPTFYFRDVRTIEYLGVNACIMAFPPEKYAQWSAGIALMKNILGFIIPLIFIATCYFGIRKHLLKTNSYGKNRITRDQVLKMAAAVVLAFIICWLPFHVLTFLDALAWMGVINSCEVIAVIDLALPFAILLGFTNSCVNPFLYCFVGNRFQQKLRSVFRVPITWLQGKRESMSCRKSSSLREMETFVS", "assay": "Receptor binding screen, [^125I]CGP 42112A", "conditions": "10 uM Concentration of Compound I-1-Z; read-out: Mean Value, percent inhibition of control specific binding: AT2 (h)"}, "DA transporter (h)": {"target": "T4, DA transporter (h) (Homo sapiens, UniProt Q01959)", "T4 construct": "expressed in transfected cells; host or cells: CHO cells", "T4 sequence (Q01959 whole entry)": "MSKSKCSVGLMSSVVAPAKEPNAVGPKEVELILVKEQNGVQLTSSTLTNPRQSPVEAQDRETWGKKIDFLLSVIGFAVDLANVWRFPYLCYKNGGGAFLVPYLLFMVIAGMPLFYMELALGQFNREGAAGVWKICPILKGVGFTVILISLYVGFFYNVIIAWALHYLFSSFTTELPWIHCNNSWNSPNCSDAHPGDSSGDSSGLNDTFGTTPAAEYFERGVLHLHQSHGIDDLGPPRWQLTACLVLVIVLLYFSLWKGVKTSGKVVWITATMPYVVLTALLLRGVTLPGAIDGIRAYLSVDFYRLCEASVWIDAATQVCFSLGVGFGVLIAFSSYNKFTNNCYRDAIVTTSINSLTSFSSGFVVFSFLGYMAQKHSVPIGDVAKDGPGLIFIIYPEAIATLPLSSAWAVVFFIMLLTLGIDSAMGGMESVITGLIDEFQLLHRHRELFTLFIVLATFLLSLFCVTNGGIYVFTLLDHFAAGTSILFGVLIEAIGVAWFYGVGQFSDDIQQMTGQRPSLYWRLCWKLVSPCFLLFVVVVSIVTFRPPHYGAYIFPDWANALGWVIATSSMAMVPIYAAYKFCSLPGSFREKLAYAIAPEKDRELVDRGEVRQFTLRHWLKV", "assay": "Receptor binding screen, [^3H]BTCP", "conditions": "10 uM Concentration of Compound I-1-Z; read-out: Mean Value, percent inhibition of control specific binding: DA transporter (h)"}, "CGRP (h)": {"target": "T5, CGRP (h) (Homo sapiens, UniProt O60894+Q16602)", "T5 construct": "expressed in transfected cells; host or cells: CHO cells", "T5 sequence (Q16602 23-461)": "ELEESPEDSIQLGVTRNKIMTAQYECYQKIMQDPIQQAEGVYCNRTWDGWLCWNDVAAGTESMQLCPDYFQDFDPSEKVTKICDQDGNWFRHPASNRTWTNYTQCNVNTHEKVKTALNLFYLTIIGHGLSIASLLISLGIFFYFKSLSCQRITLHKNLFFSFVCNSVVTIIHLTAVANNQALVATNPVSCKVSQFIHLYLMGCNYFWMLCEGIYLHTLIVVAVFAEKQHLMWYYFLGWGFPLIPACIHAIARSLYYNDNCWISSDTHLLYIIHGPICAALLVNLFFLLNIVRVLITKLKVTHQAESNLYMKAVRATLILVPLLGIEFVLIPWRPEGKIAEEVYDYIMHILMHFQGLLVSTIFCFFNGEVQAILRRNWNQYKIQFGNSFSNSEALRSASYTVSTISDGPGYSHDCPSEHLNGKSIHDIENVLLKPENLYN", "T5 sequence (O60894 27-148)": "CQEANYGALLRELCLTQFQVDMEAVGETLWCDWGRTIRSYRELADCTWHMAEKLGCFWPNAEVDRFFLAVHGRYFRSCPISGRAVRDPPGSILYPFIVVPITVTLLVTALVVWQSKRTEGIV", "assay": "Receptor binding screen, [^125I]hCGRPα", "conditions": "10 uM Concentration of Compound I-1-Z; read-out: Mean Value, percent inhibition of control specific binding: CGRP (h)"}, "[1]": {"target": "T6, μ (h) (MOP) (agonist site) (Homo sapiens, UniProt P35372)", "T6 construct": "expressed in transfected cells; host or cells: HEK-293 cells", "T6 sequence (P35372 whole entry)": "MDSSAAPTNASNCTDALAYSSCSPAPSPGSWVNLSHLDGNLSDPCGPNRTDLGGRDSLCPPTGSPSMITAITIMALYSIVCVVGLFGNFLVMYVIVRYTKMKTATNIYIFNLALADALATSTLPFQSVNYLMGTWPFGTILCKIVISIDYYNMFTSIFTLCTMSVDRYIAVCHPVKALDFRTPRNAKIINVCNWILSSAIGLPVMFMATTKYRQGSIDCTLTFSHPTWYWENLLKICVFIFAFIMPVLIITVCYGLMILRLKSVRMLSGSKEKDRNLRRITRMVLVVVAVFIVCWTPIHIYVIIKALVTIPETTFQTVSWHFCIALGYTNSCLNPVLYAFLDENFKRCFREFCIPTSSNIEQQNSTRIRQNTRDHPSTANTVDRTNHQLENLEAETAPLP", "assay": "Receptor binding screen, [^3H]DAMGO", "conditions": "10 uM Concentration of Compound I-1-Z; read-out: Mean Value, percent inhibition of control specific binding: μ (h) (MOP) (agonist site)", "method": "For Table 4 below, the specific ligand binding to the receptors is defined as the difference between the total binding and the nonspecific binding determined in the presence of an excess of unlabelled ligand. The results are expressed as a percent inhibition of control specific binding obtained in the presence of Compound I-1-Z. The IC50 values (concentration causing a half-maximal inhibition of control specific binding) and Hill coefficients (nH) were determined by non-linear regression analysis of the competition curves using Hill equation curve fitting. The inhibition constants (Ki) were calculated from the Cheng Prusoff equation (Ki=IC50/(1+(L/KD)), where L=concentration of radioligand in the assay, and KD=affinity of the radioligand for the receptor). In each experiment, the respective reference compound was tested concurrently with Compound I-1-Z in order to assess the assay suitability."}, "CCKA (h) (CCK1)": {"target": "T7, CCKA (h) (CCK1) (Homo sapiens, UniProt P32238)", "T7 construct": "expressed in transfected cells; host or cells: CHO cells", "T7 sequence (P32238 whole entry)": "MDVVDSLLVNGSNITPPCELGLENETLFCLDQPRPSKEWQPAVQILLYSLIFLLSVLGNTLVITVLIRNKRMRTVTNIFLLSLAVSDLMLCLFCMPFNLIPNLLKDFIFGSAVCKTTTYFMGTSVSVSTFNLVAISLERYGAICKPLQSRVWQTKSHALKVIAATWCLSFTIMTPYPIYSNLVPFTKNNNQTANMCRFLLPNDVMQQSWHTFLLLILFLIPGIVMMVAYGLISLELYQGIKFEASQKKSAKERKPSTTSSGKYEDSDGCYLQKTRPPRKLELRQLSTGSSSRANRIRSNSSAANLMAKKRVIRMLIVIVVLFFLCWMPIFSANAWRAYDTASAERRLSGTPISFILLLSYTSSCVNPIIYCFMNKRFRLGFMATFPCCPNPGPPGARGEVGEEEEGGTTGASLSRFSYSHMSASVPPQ", "assay": "Receptor binding screen, [^125I]CCK-8", "conditions": "10 uM Concentration of Compound I-1-Z; read-out: Mean Value, percent inhibition of control specific binding: CCKA (h) (CCK1)"}, "D4.4 (h)": {"target": "T8, D4.4 (h) (Homo sapiens, UniProt P21917)", "T8 construct": "expressed in transfected cells; host or cells: CHO cells", "T8 sequence (P21917 whole entry)": "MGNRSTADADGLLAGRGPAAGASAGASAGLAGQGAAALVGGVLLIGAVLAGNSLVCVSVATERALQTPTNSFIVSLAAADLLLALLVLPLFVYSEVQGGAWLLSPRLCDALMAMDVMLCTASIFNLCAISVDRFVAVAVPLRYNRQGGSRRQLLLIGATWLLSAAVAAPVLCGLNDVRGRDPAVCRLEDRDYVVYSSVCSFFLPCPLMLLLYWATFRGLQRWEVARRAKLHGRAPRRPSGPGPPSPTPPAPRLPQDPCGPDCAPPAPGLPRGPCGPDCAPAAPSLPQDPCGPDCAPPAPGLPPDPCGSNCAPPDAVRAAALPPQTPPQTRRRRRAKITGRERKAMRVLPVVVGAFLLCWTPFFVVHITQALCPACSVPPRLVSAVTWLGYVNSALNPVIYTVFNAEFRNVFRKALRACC", "assay": "Receptor binding screen, [^3H]spiperone", "conditions": "10 uM Concentration of Compound I-1-Z; read-out: Mean Value, percent inhibition of control specific binding: D4.4 (h)"}, "GAL1 (h)": {"target": "T9, GAL1 (h) (Homo sapiens, UniProt P47211)", "T9 construct": "expressed in transfected cells; host or cells: HEK-293 cells", "T9 sequence (P47211 whole entry)": "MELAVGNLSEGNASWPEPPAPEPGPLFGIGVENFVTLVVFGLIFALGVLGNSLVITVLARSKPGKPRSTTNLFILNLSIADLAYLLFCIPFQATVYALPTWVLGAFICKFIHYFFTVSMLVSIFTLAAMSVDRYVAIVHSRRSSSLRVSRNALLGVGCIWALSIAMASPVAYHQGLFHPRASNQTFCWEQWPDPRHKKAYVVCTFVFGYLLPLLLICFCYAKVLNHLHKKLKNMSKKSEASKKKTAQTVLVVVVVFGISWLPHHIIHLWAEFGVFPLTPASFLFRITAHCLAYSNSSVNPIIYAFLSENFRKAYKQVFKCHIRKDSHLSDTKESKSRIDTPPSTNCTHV", "assay": "Receptor binding screen, [^125I]galanin", "conditions": "10 uM Concentration of Compound I-1-Z; read-out: Mean Value, percent inhibition of control specific binding: GAL1 (h)"}, "[2]": {"tested_on": "Non-Peptide Receptors, Peptide Receptors, Ion Channels", "assay": "Screening for receptors affected by SSAO inhibitor (specific ligand binding)", "conditions": "10 μM concentration; receptor families listed", "method": "A screening procedure was employed to determine whether compound I-1-Z affects specific ligand binding to various receptors. Ligand binding to the following receptors was not affected by a 10 μM concentration of compound I-1-Z:\nNon-Peptide Receptors: Adenosine, Adrenergic, Benzodiazepine, Cannabinoid, Dopamine, GABA, Glutamate, Histamine, Melatonin, Muscarinic, Prostanoid, Purinergic, Serotonin, Sigma;\nPeptide Receptors: Angiotensin II, Bombesin, Bradykinin, Calcitonin-related peptide, Chemokine, Cholecystokinin, Cytokine, Endothein, Galanin, Growth factor, Melanocortin, Neurokinin, Neuropeptide Y, Neurotensin, Opioid, Somatostatin, VIP, Vasopressin;\nIon Channels: Calcium, Potassium, Sodium. […]\nFor Table 4 below, the specific ligand binding to the receptors is defined as the difference between the total binding and the nonspecific binding determined in the presence of an excess of unlabelled ligand. The results are expressed as a percent inhibition of control specific binding obtained in the presence of Compound I-1-Z. The IC50 values (concentration causing a half-maximal inhibition of control specific binding) and Hill coefficients (nH) were determined by non-linear regression analysis of the competition curves using Hill equation curve fitting. […]"}, "[3]": {"tested_on": "experimental autoimmune encephalomyelitis", "assay": "Experimental autoimmune encephalomyelitis (EAE), MOG peptide 35-55", "assay_type": "in vivo, C57BL/6 mice", "conditions": "40 mg/kg/dose once daily i.p. for 30 consecutive days", "method": "SSAO/VAP-1 is expressed on the endothelium of inflamed tissues/organs including brain and spinal cord. Its ability to support lymphocyte transendothelial migration may be an important systemic function of SSAO/VAP-1 in inflammatory diseases such as multiple sclerosis and Alzheimer's disease. An analysis of the use of SSAO inhibitors to treat inflammatory disease of the central nervous system (CNS) was performed through the use of an experimental autoimmune encephalomyelitis model (EAE) in C57BL/6 mice. EAE in rodents is a well-characterized and reproducible animal model of multiple sclerosis in human (Benson J. M. et al. (2000) J. Clin. Invest. 106:1031). Multiple sclerosis is a chronic immune-mediated disease of the CNS characterized by patchy perivenular inflammatory infiltrates in areas of demyelination and axonal loss. As an animal model, EAE can be induced in mice by immunization with encephalitogenic myelin antigens in the presence of adjuvant. […]\nTo examine the role of SSAO/VAP-1 as a major regulator of the lymphocyte recruitment to the CNS, compound II-1-E, an SSAO inhibitor, was evaluated in an EAE model.\nTwenty female C57BL/6 mice were immunized subcutaneously (s.c). with myelin oligodendrocyte glycoprotein 35-55 (MOG peptide 35-55) in Complete Freund Adjuvant (CFA) on day 0, followed by i.p. injections of 500 ng pertussis toxin (one pertussis toxin injection on day 0, a second pertussis toxin injection on day 2). Groups of 10 mice received either compound II-1-E 40 mg/kg/dose, once daily i.p. for 30 consecutive days), or vehicle control (once/day for 30 consecutive days) all starting from one day after the immunization and all administered i.p. The animals were monitored for body weight, signs of paralysis and death according to a 0-5 scale of scoring system as follows: 1=limp tail or waddling gait with tail tonicity; 2=waddling gait with limp tail (ataxia); 2.5=ataxia with partial limb paralysis; 3=full paralysis of one limb; 3.5=full paralysis of one limb with partial paralysis of second limb; 4=full paralysis of two limbs; 4.5=moribund; 5=death. […]"}}, "data": [{"smiles": "COc1ccc(C/C(=C/F)CN)cc1.Cl", "note": "[Compound I-1-Z, (Z)-3-Fluoro-2-(4-methoxybenzyl)-allylamine hydrochloride]", "values": [{"measurement": "inhibition at 10 µM", "setting": "AT1 (h)", "value": 10, "unit": "%"}, {"measurement": "inhibition at 10 µM", "setting": "β2 (h)", "value": 6, "unit": "%"}, {"measurement": "inhibition at 10 µM", "setting": "AT2 (h)", "value": -19, "unit": "%"}, {"measurement": "inhibition at 10 µM", "setting": "DA transporter (h)", "value": 38, "unit": "%"}, {"measurement": "inhibition at 10 µM", "setting": "CGRP (h)", "value": -7, "unit": "%"}, {"measurement": "inhibition at 10 µM", "setting": "[1]", "value": 14, "unit": "%"}, {"measurement": "inhibition at 10 µM", "setting": "CCKA (h) (CCK1)", "value": -13, "unit": "%"}, {"measurement": "inhibition at 10 µM", "setting": "D4.4 (h)", "value": 2, "unit": "%"}, {"measurement": "inhibition at 10 µM", "setting": "GAL1 (h)", "value": 0, "unit": "%"}, {"measurement": "Ligand binding to the listed receptors", "setting": "[2]", "value": "not affected"}]}, {"smiles": "NC/C(F)=C\\Cc1cc(F)cc(C(F)(F)F)c1", "note": "[II-1-E, (E)-2-Fluoro-4-(3-fluoro-5-trifluoromethylphenyl)-but-2-enylamine]", "values": [{"measurement": "day until which similar clinical scores between the two groups was not reached", "setting": "[3]", "value": 38, "unit": "days"}, {"measurement": "mean clinical score of the treated group from day 14 onward", "setting": "[3]", "value": "well below that in the control group"}, {"measurement": "day at which disease reached 100% incidence", "setting": "[3]; control group day 13", "value": 24, "unit": "days"}]}]}
